Where two headings read alike, the source gives them in different places. Starred links: 1 amine or outer side, 2 acyl side, 3 side chain; linkers in the order of their positions; H or OH if unused. Positions of bridges follow the written chain, without caps; N, C: chain ends. Non-standard residues stand in square brackets, D forms with d. Residues, ends and D or L forms follow the SMILES beside them. Groups on a side chain read outwards from the residue. *: point of attachment. Trp(1-Me) = Cn1cc(C[C@H](N)C(=O)O)c2ccccc21; Abu(4-yl) = O=C([C@H](CC[*:3])N[*:1])[*:2]; C18 diacid = O=C(O)CCCCCCCCCCCCCCCCC(=O)*; γGlu = O=C(O)[C@H](CCC(=O)[*:2])N[*:1]; AEEA = NCCOCCOCC(=O)O; Sar = CNCC(=O)O
What was measured:
[1] = tested on: classical complement pathway; experiment: In vitro haemolysis assay (inhibition of classical complement pathway); assay type: cell-based, human; conditions: Table 3; human serum, sensitized sheep red blood cells; read-out: IC50[nM], in vitro analysis of inhibition of hemolysis
Procedure, shortened: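 Serially diluted compound (9 points) was preincubated 15 min at room temperature with diluted human serum, titrated per batch to give 70-90% maximal haemolysis, in Tris/casein buffer pH 7.4 with Mg2+/Ca2+. Antibody-sensitized sheep erythrocytes were then added for 30 min at 37° C, and the reaction was stopped with EDTA. Haemolysis was read at A405, with IC50 from 4PL fit.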

Human C3 = target: T1, Human C3 (Homo sapiens, UniProt P01024); experiment: Affinity measurement by surface plasmon resonance (SPR) with immobilized C3; assay type: binding; conditions: Table 7; immobilized C3, 25° C., pH 7.4
T1 construct: purchased Complement tech A1 13c (so in the source)

in vivo = experiment: in vivo; parameters: species or system Cynomolgus monkeys (Macaca fascicularis); conditions: male, cynomolgus monkey, sc, 1840 nmol/kg; for half-life: t½
Procedure, shortened: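 Healthy male cynomolgus monkeys dosed once subcutaneously at 1840 nmol/kg in 20 mM phosphate pH 7.5 with mannitol. Serum sampled pre-dose to 120 h and total drug measured by SPE and LC-MS/MS. Terminal half-life calculated non-compartmentally as ln(2)/λz from the terminal log-linear phase.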

[2] = assay type: physicochemical; conditions: 50 mg/mL peptide; for Covalent oligomer content after 14 days 40° C. (%), F1 / Purity after 14 days 40° C. (%), F1: F1: 20 mM phosphate pH 5.5; for Covalent oligomer content after 14 days 40° C. (%), F1 / Covalent oligomer content after 14 days 40° C. (%), F2: denaturing SEC; for Purity after 14 days 40° C. (%), F1 / Purity after 14 days 40° C. (%), F2 / Purity after 14 days 40° C. (%), F3: normalized purity (HPLC)
Procedure, shortened: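 Compstatin analogues with cystathionine or disulfide bridge held at 50 mg/mL in 20 mM phosphate pH 5.5, 6.5 or 7.5 and stored 14 days at 40 °C. At 0, 7 and 14 days, samples diluted to 2 mg/mL; purity by reverse-phase HPLC (220 nm) and covalent oligomer content by denaturing SEC (215 nm), from integrated chromatograms.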

[3] = Solubility test at 10 mg/mL (visual inspection and light scattering); assay type: physicochemical; conditions: for Solubility, Condition 1 Acetate pH 4: 10 mg/mL compound in 100 mM acetate pH 4; for Solubility, Condition 2 Acetate pH 5: 10 mg/mL compound in 100 mM acetate pH 5; for Solubility, Condition 3 Phosphate pH 6: 10 mg/mL compound in 100 mM phosphate pH 6; for Solubility, Condition 4 Phosphate pH 7: 10 mg/mL compound in 100 mM phosphate pH 7; for Solubility, Condition 5 Phosphate pH 7.5: 10 mg/mL compound in 100 mM phosphate pH 7.5

| SMILES | IC50 [1] [nM] | Kd (Human C3) [nM] | half-life (in vivo) [h] | Covalent oligomer content after 14 days 40° C. (%), F1 [2] [%] | Purity after 14 days 40° C. (%), F1 [2] [%] | Covalent oligomer content after 14 days 40° C. (%), F2 ([2]; F2: 20 mM phosphate pH 6.5) [%] | Purity after 14 days 40° C. (%), F2 ([2]; F2: 20 mM phosphate pH 6.5) [%] | Covalent oligomer content after 14 days 40° C. (%), F2 ([2]; F3: 20 mM phosphate pH 7.5) [%] | Purity after 14 days 40° C. (%), F3 ([2]; F3: 20 mM phosphate pH 7.5) [%] | Solubility, Condition 1 Acetate pH 4 [3] | Solubility, Condition 2 Acetate pH 5 [3] | Solubility, Condition 3 Phosphate pH 6 [3] | Solubility, Condition 4 Phosphate pH 7 [3] | Solubility, Condition 5 Phosphate pH 7.5 [3] | t½ (in vivo) [h] |
| --- | --- | --- | --- | --- | --- | --- | --- | --- | --- | --- | --- | --- | --- | --- | --- |
| CC[C@H](C)[C@@H]1NC(=O)[C@@H](NC(=O)[C@H](Cc2ccc(O)cc2)NC(=O)[C@H](C)NC(=O)[C@H](CO)NC(C)=O)CSSC[C@@H](C(=O)N(C)CC(=O)N[C@@H](CCC(=O)O)C(=O)N[C@@H](CCCCNC(=O)CC[C@H](NC(=O)CNC(=O)CC[C@H](NC(=O)CCCCCCCCCCCCCCCCC(=O)O)C(=O)O)C(=O)O)C(N)=O)NC(=O)[C@H](CCCNC(=N)N)NC(=O)[C@H](Cc2c[nH]cn2)NC(=O)[C@H](CCC(=O)O)NC(=O)CNC(=O)[C@H](Cc2c[nH]c3ccccc23)NC(=O)[C@H](CC(=O)O)NC(=O)[C@H](CCC(N)=O)NC(=O)[C@H](Cc2cn(C)c3ccccc23)NC1=O [Compound 106] (Ac-SAYCI[Trp(1-Me)]QDWGEHRC[Sar]EK([γGlu-Gly-γGlu-C18 diacid])-NH2; disulfide 4-14) | < 250 | 5.4 | 93.9 | – | – | – | – | – | – | – | – | – | – | – | – |
| CC[C@H](C)[C@@H]1NC(=O)[C@@H](NC(=O)[C@H](Cc2ccccc2)NC(=O)[C@H](CCC(=O)O)NC(=O)[C@H](CO)NC(C)=O)CSCC[C@@H](C(=O)N[C@H](C(=O)N[C@@H](CCC(=O)O)C(=O)NCC(=O)N[C@@H](CCC(=O)O)C(=O)NCCOCCOCC(=O)N[C@@H](CCC(=O)O)C(=O)N[C@@H](CO)C(=O)N[C@@H](CCCCNC(=O)CC[C@H](NC(=O)CCCCCCCCCCCCCCCCC(=O)O)C(=O)O)C(N)=O)[C@@H](C)O)NC(=O)[C@H](CCCNC(=N)N)NC(=O)[C@H](Cc2c[nH]cn2)NC(=O)[C@H](CCC(=O)O)NC(=O)CNC(=O)[C@H](Cc2c[nH]c3ccccc23)NC(=O)[C@H](CC(=O)O)NC(=O)[C@H](CCC(N)=O)NC(=O)[C@H](Cc2cn(C)c3ccccc23)NC1=O [Compound 148, Ac-SEFA(1)I[1-Me-Trp]QDWGEHRhC(1)TEGE[Peg3]ES-K([17-carboxy-heptadecanoyl][γGlu])-NH2] (Ac-SEFCI[Trp(1-Me)]QDWGEHR[Abu(4-yl)]TEGE[AEEA]ESK([γGlu-C18 diacid])-NH2; thioether 4-14) | < 100 | 3.4 | 129 | 0.7 | 93 | 0.0 | 97 | 0.1 | 97 | – | – | – | – | – | – |
| CC[C@H](C)[C@@H]1NC(=O)[C@@H](NC(=O)[C@H](Cc2ccccc2)NC(=O)[C@H](CCC(=O)O)NC(=O)[C@H](CO)NC(C)=O)CSSC[C@@H](C(=O)N(C)CC(=O)N[C@@H](CCC(=O)O)C(=O)NCC(=O)N[C@@H](CCC(=O)O)C(=O)NCCOCCOCC(=O)NCCOCCOCC(=O)N[C@@H](CCCCNC(=O)CC[C@H](NC(=O)CNC(=O)CC[C@H](NC(=O)CCCCCCCCCCCCCCCCC(=O)O)C(=O)O)C(=O)O)C(N)=O)NC(=O)[C@H](CCCNC(=N)N)NC(=O)[C@H](Cc2c[nH]cn2)NC(=O)[C@H](CCC(=O)O)NC(=O)CNC(=O)[C@H](Cc2c[nH]c3ccccc23)NC(=O)[C@H](CC(=O)O)NC(=O)[C@H](CCC(N)=O)NC(=O)[C@H](Cc2cn(C)c3ccccc23)NC1=O [Compound 123] (Ac-SEFCI[Trp(1-Me)]QDWGEHRC[Sar]EGE[AEEA][AEEA]K([γGlu-Gly-γGlu-C18 diacid])-NH2; disulfide 4-14) | < 100 | 11 | 105 | 52 | 56 | 48 | 54 | 45 | 54 | – | – | – | – | – | – |
| CC[C@H](C)[C@@H]1NC(=O)[C@@H](NC(=O)[C@H](Cc2ccc(O)cc2)NC(=O)[C@H](CCC(=O)O)NC(=O)[C@H](CO)NC(C)=O)CSSC[C@@H](C(=O)N(C)CC(=O)N[C@@H](CCC(=O)O)C(=O)NCC(=O)N[C@@H](C)C(=O)N[C@@H](CCCCNC(=O)COCCOCCNC(=O)CC[C@H](NC(=O)COCCOCCNC(=O)CNC(=O)CC[C@H](NC(=O)CCCCCCCCCCCCCCCCC(=O)O)C(=O)O)C(=O)O)C(N)=O)NC(=O)[C@H](CCCNC(=N)N)NC(=O)[C@H](Cc2c[nH]cn2)NC(=O)[C@H](CCC(=O)O)NC(=O)CNC(=O)[C@H](Cc2c[nH]c3ccccc23)NC(=O)[C@H](CC(=O)O)NC(=O)[C@H](CCC(N)=O)NC(=O)[C@H](Cc2cn(C)c3ccccc23)NC1=O [Compound 118] (Ac-SEYCI[Trp(1-Me)]QDWGEHRC[Sar]EGAK([AEEA-γGlu-AEEA-Gly-γGlu-C18 diacid])-NH2; disulfide 4-14) | < 100 | 11 | 78.7 | – | – | – | – | – | – | − (denotes lack of solubility at the given condition, as UV absorbance at 340 nm exceeds 0.1 AU and/or it is visibly turbid or contains particles.) | + (denotes solubility at the given condition, as determined by UV absorbance being less than 0.1 AU at 340 nm and the sample being clear when manually inspected.) | + (denotes solubility at the given condition, as determined by UV absorbance being less than 0.1 AU at 340 nm and the sample being clear when manually inspected.) | + (denotes solubility at the given condition, as determined by UV absorbance being less than 0.1 AU at 340 nm and the sample being clear when manually inspected.) | + (denotes solubility at the given condition, as determined by UV absorbance being less than 0.1 AU at 340 nm and the sample being clear when manually inspected.) | 155 |
| CC[C@H](C)[C@@H]1NC(=O)[C@@H](NC(=O)[C@H](Cc2ccc(O)cc2)NC(=O)[C@H](C)NC(=O)[C@H](CO)NC(=O)CNC(=O)[C@H](CCC(=O)O)NC(C)=O)CSSC[C@@H](C(=O)N(C)CC(=O)N[C@@H](CCC(=O)O)C(=O)N[C@@H](CCCCN)C(=O)N[C@@H](CCC(=O)N[C@@H](CCCCNC(=O)COCCOCCNC(=O)COCCOCCNC(=O)CC[C@H](NC(=O)CCCCCCCCCCCCCCCCC(=O)O)C(=O)O)C(N)=O)C(=O)O)NC(=O)[C@H](CCCNC(=N)N)NC(=O)[C@H](Cc2c[nH]cn2)NC(=O)[C@H](CCC(=O)O)NC(=O)CNC(=O)[C@H](Cc2c[nH]c3ccccc23)NC(=O)[C@H](CC(=O)O)NC(=O)[C@H](CCC(N)=O)NC(=O)[C@H](Cc2cn(C)c3ccccc23)NC1=O [Compound 111] (Ac-EGSAYCI[Trp(1-Me)]QDWGEHRC[Sar]EK[γGlu]K([AEEA-AEEA-γGlu-C18 diacid])-NH2; disulfide 6-16) | < 100 | – | 157 | 30 | 80 | 77 | 24 | 61 | 33 | − (denotes lack of solubility at the given condition, as UV absorbance at 340 nm exceeds 0.1 AU and/or it is visibly turbid or contains particles.) | − (denotes lack of solubility at the given condition, as UV absorbance at 340 nm exceeds 0.1 AU and/or it is visibly turbid or contains particles.) | + (denotes solubility at the given condition, as determined by UV absorbance being less than 0.1 AU at 340 nm and the sample being clear when manually inspected.) | + (denotes solubility at the given condition, as determined by UV absorbance being less than 0.1 AU at 340 nm and the sample being clear when manually inspected.) | + (denotes solubility at the given condition, as determined by UV absorbance being less than 0.1 AU at 340 nm and the sample being clear when manually inspected.) | – |

Source: patent publication US20220306695A1, “COMPSTATIN ANALOGUES AND THEIR MEDICAL USES” (priority 2019, published 2022)
